# Experiments:
# p38.alpha = p38.alpha (Homo sapiens, UniProt Q16539); test: Activity of other protein kinases: p38.alpha; format: biochemical; details: 100 micro.M
# PRAS40 = PRAS40 phosphorylation by western analysis in UACC903 cells; format: cell-based, human; details: UACC903, 10.micro.M
# Description: FIG. 6 describes the effect of BI-69A11 on phosphorylation and total levels of AKT in UACC 903 (PTEN−) cells. (A) UACC903 and the modified clone 29-1 (PTEN+) cells were exposed to 10 micro.M BI-69A11 and 50 micro.M LY294002 (a PI3K inhibitor) and the levels of pAKT473 and total AKT determined by western analysis. […] (SF=Serum Free). (B) BI-69A11 inhibits PRAS40 phosphorylation. UACC903 melanoma cells or 29-1 cells (PTEN+) were subjected to treatment with IGF-1 (20 ng/mL) and the level of PRAS40 phosphorylation was assessed. […] The cells were collected, lysed and levels of pPRAS40 and total PRAS40 determined by western analysis. (C) AKT association with HSP90 is inhibited by BI-69A11. Human melanoma cells were treated with BI-69A11 (10.micro.M) or DMSO control for 4 h, followed by protein preparation and immunoprecipitation using antibodies to pan-AKT. MG132 treatment, when used, initiated 1 h prior to treatment and lasted up to the preparation of proteins (total of 5 h). The right panel depicts analysis of total lysates.
# Thus, we set to test the possibility that BI-69A11's ability to inhibit AKT activity may stem from inhibition of AKT protein expression (see data below). We thus assessed whether inhibition of AKT Ser473 phosphorylation coincides with its activity, namely the phosphorylation of known AKT substrates. […]
# NRAS/Ink4a mice = test: Melanoma development in NRAS/Ink4a mice; format: in vivo
# Description: The NRAS/Ink4a mice harbor a Q61K NRAS activating mutation, as is seen in 15% of human melanomas, on an Ink4a-deficient background, which mimics the mutations often seen in this locus (p16) in human melanoma.
# The NRAS/Ink4a mouse develops melanoma with penetrance of about 25-50% which is often accompanied by metastasis to the lymph nodes.
# To examine the effect of BI-69A11 treatment on in vivo melanoma development, BI-69A11 was administered to a cohort of 30 mice twice per week (IP, 0.5 mg/kg), starting at week 28 after NRAS expression. A control group of 30 mice received the control vehicle formulation. In this model, by 28 weeks many mice already developed melanoma. Those were not included in our study which was restricted to animals that have not yet developed melanoma. Nevertheless, in a clinical setting, preventive treatment could be administered prior to tumor development, at a stage where early stages of development had been initiated.
# NRAS expression was induced in NRAS/INK4a mice (time 0) and the mice were maintained for 40 weeks. Starting at 28 weeks, animals received BI-69A11 at 0.5 mg/kg by IP injection twice weekly.
# NRAS expression was induced in NRAS/INK4a mice and 28 weeks later treatment with BI-69A11 was initiated. Internal tumors developed in this model were fibrosarcomas, whereas the skin tumors were melanomas (confirmed by immunostaining with S100 and DCT).
# An additional experimental group included animals from the same melanoma model, albeit, those were treated earlier (after 10 weeks rather than 28).
# [1] = IP 0.5 mg/kg twice per week from week 28
# p38.alpha, sequence (Q16539 whole entry): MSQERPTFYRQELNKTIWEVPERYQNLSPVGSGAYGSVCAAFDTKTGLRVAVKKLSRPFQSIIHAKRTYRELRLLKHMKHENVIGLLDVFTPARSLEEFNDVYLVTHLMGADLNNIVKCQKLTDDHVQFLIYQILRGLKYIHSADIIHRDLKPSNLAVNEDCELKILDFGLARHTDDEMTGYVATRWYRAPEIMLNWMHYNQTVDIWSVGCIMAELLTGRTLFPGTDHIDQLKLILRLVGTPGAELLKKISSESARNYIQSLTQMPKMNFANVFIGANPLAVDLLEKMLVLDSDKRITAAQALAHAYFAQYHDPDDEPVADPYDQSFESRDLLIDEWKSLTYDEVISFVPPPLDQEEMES
structure (smiles),measurement,setting,value
"O=C(/C=C/c1nc2ccccc2[nH]1)c1c(O)nc2ccc(Cl)cc2c1-c1ccccc1 [Compound 2, (E)-3-(3-(1H-benzo[d]imidazol-2-yl)acryloyl)-6-chloro-4-phenylquinolin-2(1H)-one]",effect on p38.alpha activity,p38.alpha,did not affect
same,phosphorylation of PRAS40,PRAS40,markedly inhibited
same,inhibition in the fibrosarcoma group,NRAS/Ink4a mice; [1],~50%
same,inhibition of melanomas,NRAS/Ink4a mice; [1],~68%
same,share of the 25 melanomas that developed in the treated group,NRAS/Ink4a mice; [1],32%
same,total number of tumors developed,"NRAS/Ink4a mice; IP 0.5 mg/kg twice per week from week 28, up to 40 weeks, 30 tumors in control group",19
same,number of melanomas,"NRAS/Ink4a mice; IP 0.5 mg/kg twice per week from week 28, control 17",8
same,prevention with administration after 10 weeks compared with after 28 weeks,"NRAS/Ink4a mice; mouse, in vivo",as effective as
